Experimental data from PubChem BioAssay (NCI).
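Growth conditions: 96-well plates. Treatment: test compound, 48 hours, 5 concentrations. Analysis: linear interpolation between bracketing concentrations; unreached endpoints set to highest concentration. GI50 = concentration required for 50% inhibition of growth. TGI: concentration producing complete growth inhibition.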

Legend:
Assay in all cases: DTP human tumour cell line panel, 48 h
[1] = system: 786-0 renal
[2] = system: A498 renal
[3] = system: A549 NSCLC
[4] = system: ACHN renal
[5] = system: BT-549 breast
[6] = system: CAKI-1 renal
[7] = system: CCRF-CEM leukemia
[8] = system: COLO 205 colon
[9] = system: DU-145 prostate
[10] = system: EKVX NSCLC
[11] = system: HCC-2998 colon
[12] = system: HCT-116 colon
[13] = system: HCT-15 colon
[14] = system: HL-60(TB) leukemia
[15] = system: HOP-62 NSCLC
[16] = system: HOP-92 NSCLC
[17] = system: HS 578T breast
[18] = system: HT29 colon
[19] = system: IGROV1 ovarian
[20] = system: K-562 leukemia
[21] = system: KM12 colon
[22] = system: LOX IMVI melanoma
[23] = system: MALME-3M melanoma
[24] = system: MCF7 breast
[25] = system: MDA-MB-231 breast
[26] = system: MDA-MB-435
[27] = system: MOLT-4 leukemia
[28] = system: NCI-H226 lung
[29] = system: NCI-H23 lung
[30] = system: NCI-H460 lung
[31] = system: NCI-H522 lung
[32] = system: NCI/ADR-RES ovarian
[33] = system: OVCAR-3 ovarian
[34] = system: OVCAR-4 ovarian
[35] = system: OVCAR-5 ovarian
[36] = system: OVCAR-8 ovarian
[37] = system: RPMI-8226 leukemia
[38] = system: RXF 393 renal
[39] = system: SF-268 CNS
[40] = system: SF-295 CNS
[41] = system: SF-539 CNS
[42] = system: SK-MEL-2 melanoma
[43] = system: SK-MEL-28 melanoma
[44] = system: SK-MEL-5 melanoma
[45] = system: SK-OV-3 ovarian
[46] = system: SN12C renal
[47] = system: SNB-19 CNS
[48] = system: SNB-75 CNS
[49] = system: SR leukemia
[50] = system: SW-620 colon
[51] = system: T-47D breast
[52] = system: TK-10 renal
[53] = system: U251 CNS
[54] = system: UACC-257 melanoma
[55] = system: UACC-62 melanoma
[56] = system: UO-31 renal
[57] = system: M14 melanoma
[58] = system: PC-3 prostate

## Cn1c(I)c(C#C[Si](C)(C)C)c(=O)[nH]c1=O
[1]
  GI50: 16.4 µM
  TGI: 30.4 µM
[2]
  GI50: 16.4 µM
  TGI: 30.2 µM
[3]
  GI50: 21.5 µM
  TGI: 38.1 µM
[4]
  GI50: 1.61 µM
  TGI: 3.01 µM
[5]
  GI50: 3 µM
  TGI: 9.21 µM
[6]
  GI50: 2.76 µM
  TGI: 9.58 µM
[7]
  GI50: 1.74 µM
  TGI: 3.65 µM
[8]
  GI50: 1.87 µM
  TGI: 3.69 µM
[9]
  GI50: 4.11 µM
  TGI: 15.1 µM
[10]
  GI50: 10.9 µM
  TGI: 24.8 µM
[11]
  GI50: 2.32 µM
  TGI: 4.59 µM
[12]
  GI50: 1.89 µM
  TGI: 3.57 µM
[13]
  GI50: 1.83 µM
  TGI: 3.64 µM
[14]
  GI50: 1.9 µM
  TGI: 4.42 µM
[15]
  GI50: 17.6 µM
  TGI: 32.4 µM
[16]
  GI50: 1.08 µM
  TGI: 2.53 µM
[17]
  GI50: 2.3 µM
  TGI: 7.08 µM
[18]
  GI50: 2.41 µM
  TGI: 5.64 µM
[19]
  GI50: 1.9 µM
  TGI: 3.63 µM
[20]
  GI50: 1.68 µM
  TGI: 4.08 µM
[21]
  GI50: 16.8 µM
  TGI: 32.4 µM
[22]
  GI50: 2.09 µM
  TGI: 4 µM
[23]
  GI50: 1.96 µM
  TGI: 4.25 µM
[24]
  GI50: 6.2 µM
  TGI: 21.5 µM
[25]
  GI50: 2.5 µM
  TGI: 7.25 µM
[26]
  GI50: 3.1 µM
  TGI: 11.5 µM
[27]
  GI50: 2.54 µM
  TGI: 5.76 µM
[28]
  GI50: 12.7 µM
  TGI: 25.3 µM
[29]
  GI50: 4.25 µM
  TGI: 17.3 µM
[30]
  GI50: 19.7 µM
  TGI: 41.3 µM
[31]
  GI50: 1.68 µM
  TGI: 3.18 µM
[32]
  GI50: 20.7 µM
  TGI: 42.8 µM
[33]
  GI50: 1.9 µM
  TGI: 3.39 µM
[34]
  GI50: 1.97 µM
  TGI: 3.59 µM
[35]
  GI50: 14.7 µM
  TGI: 30.8 µM
[36]
  GI50: 12.1 µM
  TGI: 25.6 µM
[37]
  GI50: 1.64 µM
  TGI: 4.28 µM
[38]
  GI50: 0.639 µM
  TGI: 1.74 µM
[39]
  GI50: 2.79 µM
  TGI: 8.85 µM
[40]
  GI50: 20 µM
  TGI: 45.8 µM
[41]
  GI50: 9.28 µM
  TGI: 21.4 µM
[42]
  GI50: 14.4 µM
  TGI: 28.3 µM
[43]
  GI50: 1.66 µM
  TGI: 3.12 µM
[44]
  GI50: 17.1 µM
  TGI: 31 µM
[45]
  GI50: 17.2 µM
  TGI: 30.9 µM
[46]
  GI50: 6.66 µM
  TGI: 20.5 µM
[47]
  GI50: 16 µM
  TGI: 30.1 µM
[48]
  GI50: 15.2 µM
  TGI: 29.3 µM
[49]
  GI50: 3.37 µM
  TGI: 5.82 µM
[50]
  GI50: 1.71 µM
  TGI: 3.23 µM
[51]
  GI50: 2.54 µM
  TGI: 8 µM
[52]
  GI50: 7.93 µM
  TGI: 22.8 µM
[53]
  GI50: 12.8 µM
  TGI: 25.5 µM
[54]
  GI50: 0.236 µM
  TGI: 3.85 µM
[55]
  GI50: 6.4 µM
  TGI: 19.8 µM
[56]
  GI50: 16.8 µM
  TGI: 32.4 µM

## O=C(CI)Nc1ccc(Br)cc1
[1]
  GI50: 2.23 µM
  TGI: 4.62 µM
[2]
  GI50: 16.3 µM
  TGI: 33.1 µM
[3]
  GI50: 5.89 µM
  TGI: 29.3 µM
[4]
  GI50: 2 µM
  TGI: 4.06 µM
[5]
  GI50: 1.64 µM
  TGI: 3.14 µM
[6]
  GI50: 1.69 µM
  TGI: 3.51 µM
[7]
  GI50: 1.75 µM
  TGI: > 100 µM
[8]
  GI50: 1.85 µM
  TGI: 3.7 µM
[9]
  GI50: 1.77 µM
  TGI: 3.18 µM
[10]
  GI50: 2.25 µM
  TGI: 5.85 µM
[11]
  GI50: 13.4 µM
  TGI: 27.3 µM
[12]
  GI50: 1.88 µM
  TGI: 3.45 µM
[13]
  GI50: 2.09 µM
  TGI: 5.13 µM
[15]
  GI50: 1.89 µM
  TGI: 3.82 µM
[17]
  GI50: 5.05 µM
  TGI: > 100 µM
[18]
  GI50: 2.43 µM
  TGI: 5.28 µM
[19]
  GI50: 2.35 µM
  TGI: 4.88 µM
[20]
  GI50: 2.53 µM
  TGI: > 100 µM
[21]
  GI50: 2.9 µM
  TGI: 10.7 µM
[22]
  GI50: 0.326 µM
  TGI: 1.46 µM
[57]
  GI50: 1.92 µM
  TGI: 3.85 µM
[23]
  GI50: 2.1 µM
  TGI: 4.29 µM
[24]
  GI50: 1.91 µM
  TGI: 3.95 µM
[25]
  GI50: 2.6 µM
  TGI: 5.51 µM
[26]
  GI50: 2.04 µM
  TGI: 4.7 µM
[27]
  GI50: 3.43 µM
  TGI: > 100 µM
[28]
  GI50: 3.78 µM
  TGI: 19.2 µM
[29]
  GI50: 1.87 µM
  TGI: 4.61 µM
[30]
  GI50: 12.4 µM
  TGI: 45.8 µM
[31]
  GI50: 1.53 µM
  TGI: 3.47 µM
[32]
  GI50: 3.03 µM
  TGI: 9.76 µM
[33]
  GI50: 1.72 µM
  TGI: 3.25 µM
[34]
  GI50: 2.92 µM
  TGI: 7.25 µM
[35]
  GI50: 2.14 µM
  TGI: 4.81 µM
[36]
  GI50: 2.46 µM
  TGI: 5.95 µM
[58]
  GI50: 2.43 µM
  TGI: 6.22 µM
[38]
  GI50: 1.7 µM
  TGI: 3.21 µM
[39]
  GI50: 1.8 µM
  TGI: 3.65 µM
[40]
  GI50: 11.2 µM
  TGI: 30.7 µM
[41]
  GI50: 1.81 µM
  TGI: 3.67 µM
[42]
  GI50: 2.9 µM
  TGI: 8.03 µM
[43]
  GI50: 3.82 µM
  TGI: 11.3 µM
[44]
  GI50: 3.95 µM
  TGI: 15.4 µM
[45]
  GI50: 1.99 µM
  TGI: 3.99 µM
[47]
  GI50: 15.1 µM
  TGI: 33.5 µM
[48]
  GI50: 5.42 µM
  TGI: 24.7 µM
[49]
  GI50: 0.365 µM
  TGI: > 100 µM
[52]
  GI50: 1.92 µM
  TGI: 3.63 µM
[53]
  GI50: 1.83 µM
  TGI: 3.87 µM
[54]
  GI50: 2.05 µM
  TGI: 4.66 µM
[55]
  GI50: 3.96 µM
  TGI: 14.8 µM
[56]
  GI50: 1.63 µM
  TGI: 3.17 µM
